Experimental data taken from patent US20080226719A1, “Combination of Rosiglitazone and Donepezil for Improvement of Cognitive Function” (priority 2005, published 2008).

Legend:
Format in all cases: in vivo, human
[1] = system: Alzheimer's patients; assay: Disability Assessment for Dementia (DAD), Example 2 study; conditions: week 24
Experimental: (§1) Patients received either placebo or one of three dosage levels of extended release rosiglitazone provided once daily (2 mg, 4 mg and 8 mg tablets as described in Example 1). Patients were examined using the cognitive Alzheimer's Disease Assessment Scale (ADAS-cog; for further information see Rosen W G et al. Am. J. Psychiatry. 1984 141:1356-1364) and the Clinician's Interview-Based Impression of Change with caregiver information (CIBIC+; for further information see Knopman D S et al. Neurology 1994 44: 2315-2321); and secondary assessments were performed using: the Disability Assessment for Dementia (DAD, for further information see Gelinas L et al. Am J Occup Ther 1999 53: 471-81) and the Neuropsychiatric Inventory test (NPI, for further information see Cummings et al (1994) Neurology 44, 2308-2314) at the start of the study (baseline) and during the course of the study (after 8, 16 and 24 weeks of treatment).
Similar results were identified using the Disability Assessment for Dementia (DAD) test (Gelinas L et al. Am J Occup Ther 1999 53: 471-81). A prospectively defined test for interaction between APOE4 carriage status and DAD scores at week 24 was significant (P=0.006).

[2] = system: Alzheimer's patients; assay: ADAS-cog in patients with mild to moderate AD, 24 week placebo-controlled study (Example 2); conditions: for ADAS-cog Treatment Difference (95% confidence limits) Rosi − Placebo / ADAS-cog model adjusted change from baseline, LSMean (SE): ITT population, LOCF; for ADAS-cog Treatment Difference (95% confidence limits) Rosi − Placebo / ADAS-cog model adjusted change from baseline, LSMean (SE) / ADAS-cog Treatment Difference (90% confidence limits) Rosi − Placebo / ADAS-cog model-adjusted change from baseline, LSMean (SE): 24 weeks; for ADAS-cog Treatment Difference (90% confidence limits) Rosi − Placebo / ADAS-cog model-adjusted change from baseline, LSMean (SE): PGx ITT population
Experimental: (§2) Analysis for the full intent to treat (ITT) population was performed on 511 subjects who were randomly allocated into one of four specific treatment regimes. Genotyping analysis was performed on 63% (323/511) of the ITT population.
(§3) Patient population included Caucasian males and females between 50-85 years of age who had been diagnosed with mild to moderate AD, were not receiving any medications which could adversely prejudice the study (e.g. PPAR-gamma agonists or conventional AD medicaments) or had any other potentially prejudicial ailments (e.g. diabetes or major psychiatric disorders).
as §1
(§4) APOE genotype was determined using the TaqMan PCR-based method of McLeod et al 2001 infra.
(§5) All statistics reflect last observed assessment carried forward (LOCF) measurements.
It should be noted that in the case of ADAS-cog higher scores indicate reduced cognitive function.

[3] = system: Alzheimer's patients; assay: Neuropsychiatric Inventory (NPI), Example 2 study; conditions: week 24
Experimental: as §1
Similar results were identified using the Neuropsychiatric Inventory (NPI) test (Cummings et al (1994) Neurology 44, 2308-2314). A prospectively defined test for interaction between APOE4 carriage status and NPI scores at week 24 was significant ([…]).

[4] = system: Alzheimer's patients; assay: CIBIC+ in patients with mild to moderate AD, 24 week placebo-controlled study (Example 2); conditions: ITT population, LOCF, 24 weeks
Experimental: as §2, §3, §1, §4, §5
Higher CIBIC+ scores indicate a greater level of decline with scores below 4 denoting clinical improvement and scores above 4 denoting clinical decline.

**Q.** What does the source list for `CN(CCOc1ccc(CC2SC(=O)NC2=O)cc1)c1ccccn1` (stereo not drawn) [Rosi, 5-[4-[2-(N-methyl-N-(2-pyridyl)amino)ethoxy]benzyl]thiazolidine-2,4-dione]?
**A.** DAD scores, pattern of results ([1]; APOE4+ subjects): demonstrated no improvement; DAD scores, pattern of results ([1]; APOE4− subjects): demonstrated improvement on DAD; ADAS-cog change from baseline, cognitive function (FIG. 2) ([2]; APOE4+ individuals, 2 mg, 4 mg or 8 mg, after 8 weeks): slight improvement; ADAS-cog change from baseline, cognitive function (FIG. 2) ([2]; APOE4+ individuals, 2 mg, after 16 weeks): a greater decline than the placebo; ADAS-cog change from baseline, cognitive function (FIG. 2) ([2]; APOE4+ individuals, 4 mg and 8 mg, after 16 weeks, versus placebo): the same or better clinical status; ADAS-cog change from baseline, cognitive function (FIG. 2) ([2]; APOE4+ individuals, all three treatment arms, after 24 weeks): finish with a clinical decline; ADAS-cog change from baseline (FIG. 3) ([2]; APOE4 heterozygotes, higher doses (4, 8 mg), course of the study): remained close to the baseline; ADAS-cog change from baseline (FIG. 3) ([2]; APOE4 homozygotes, all treated): experienced a clinical decline; ADAS-cog change from baseline, cognitive function (FIG. 2) ([2]; APOE4− individuals, 2 mg, 4 mg or 8 mg, all time points (8, 16 and 24 weeks)): marked improvement; ADAS-cog Treatment Difference (95% confidence limits) Rosi − Placebo ([2]; 2 mg): 0.25 (−1.19, 1.68); ADAS-cog model adjusted change from baseline, LSMean (SE) ([2]; 2 mg once daily extended release): −0.2 (0.54); ADAS-cog Treatment Difference (95% confidence limits) Rosi − Placebo ([2]; 4 mg): −0.46 (−1.90, 0.97); ADAS-cog model adjusted change from baseline, LSMean (SE) ([2]; 4 mg once daily extended release): −0.9 (0.54); ADAS-cog Treatment Difference (95% confidence limits) Rosi − Placebo ([2]; 8 mg): −0.27 (−1.70, 1.16); ADAS-cog model adjusted change from baseline, LSMean (SE) ([2]; 8 mg once daily extended release): −0.7 (0.53); ADAS-cog Treatment Difference (90% confidence limits) Rosi − Placebo ([2]; 0 APOE4 copies, 2 mg): −2.39 (−4.43, −0.36); ADAS-cog model-adjusted change from baseline, LSMean (SE) ([2]; 0 APOE4 copies, 2 mg): −1.38 (0.90); ADAS-cog Treatment Difference (90% confidence limits) Rosi − Placebo ([2]; 0 APOE4 copies, 4 mg): −2.26 (−4.32, −0.20); ADAS-cog model-adjusted change from baseline, LSMean (SE) ([2]; 0 APOE4 copies, 4 mg): −1.25 (0.90); ADAS-cog Treatment Difference (90% confidence limits) Rosi − Placebo ([2]; 0 APOE4 copies, 8 mg): −2.86 (−4.98, −0.74); ADAS-cog model-adjusted change from baseline, LSMean (SE) ([2]; 0 APOE4 copies, 8 mg): −1.85 (0.94); ADAS-cog Treatment Difference (90% confidence limits) Rosi − Placebo ([2]; 0 APOE4 copies, 8 mg, listed as rosiglitazone): −2.86; ADAS-cog Treatment Difference (90% confidence limits) Rosi − Placebo ([2]; 1 APOE4 copy, 2 mg): 2.59 (0.10, 5.08); ADAS-cog model-adjusted change from baseline, LSMean (SE) ([2]; 1 APOE4 copy, 2 mg): 2.02 (1.10); ADAS-cog Treatment Difference (90% confidence limits) Rosi − Placebo ([2]; 1 APOE4 copy, 4 mg): 0.36 (−2.18, 2.90); ADAS-cog model-adjusted change from baseline, LSMean (SE) ([2]; 1 APOE4 copy, 4 mg): −0.21 (1.15); ADAS-cog Treatment Difference (90% confidence limits) Rosi − Placebo ([2]; 1 APOE4 copy, 8 mg): 0.23 (−2.42, 2.87); ADAS-cog model-adjusted change from baseline, LSMean (SE) ([2]; 1 APOE4 copy, 8 mg): −0.34 (1.25); ADAS-cog Treatment Difference (90% confidence limits) Rosi − Placebo ([2]; 2 APOE4 copies, 2 mg): 10.26 (3.64, 16.87); ADAS-cog model-adjusted change from baseline, LSMean (SE) ([2]; 2 APOE4 copies, 2 mg): 5.67 (2.98); ADAS-cog Treatment Difference (90% confidence limits) Rosi − Placebo ([2]; 2 APOE4 copies, 4 mg): 7.75 (1.79, 13.71); ADAS-cog model-adjusted change from baseline, LSMean (SE) ([2]; 2 APOE4 copies, 4 mg): 3.16 (2.44); ADAS-cog Treatment Difference (90% confidence limits) Rosi − Placebo ([2]; 2 APOE4 copies, 8 mg): 6.50 (1.28, 11.71); ADAS-cog model-adjusted change from baseline, LSMean (SE) ([2]; 2 APOE4 copies, 8 mg): 1.91 (1.73); NPI scores, pattern of results ([3]; APOE4+ subjects): demonstrated no improvement; NPI scores, pattern of results ([3]; APOE4− subjects): demonstrated improvement on NPI; CIBIC+ LSMean (SE) ([4]; 2 mg): 3.8 (0.10); CIBIC+ Treatment Difference (95% confidence limits) Rosi − Placebo ([4]; 2 mg): −0.16 (−0.44, 0.11); CIBIC+ LSMean (SE) ([4]; 4 mg): 3.8 (0.10)
